# Several values for one entry are separate records, joined by “and”; a condition that tells them apart may be missing. Equal values may be shown once. After the bases stand the sugars from the 5' end (letter, count) and the backbone: PS all phosphorothioate, else s phosphorothioate and o phosphodiester by linkage. Methylation of C is not given here. e = 2'-O-(2-methoxyethyl) (MOE); k = constrained ethyl (cEt); d = 2'-deoxy (DNA)
# Biological target: IRF5
# Conditions: ASO
Sequence,"target mRNA inhibition (KARPAS-229, 4 µM)",other results
"AAGGGCACAGCGCAGG (sugars k3 d9 k3 e1, PS)",3%,–
"AAGGGCACAGCGCAGG (sugars kekdddddddddeekk, PS)",0%,–
"AAGGGCACAGCGCAGG (sugars kkkdddddddddkeke, PS)",0%,–
"AAGGGCACAGCGCAGG (sugars kkkddddddddkekek, PS)",0%,–
"AATAGGAGTGAGACGA (sugars k3 d10 k3, PS)",25%,–
"AATTTTGCATTCCATA (sugars k3 d10 k3, PS)",41%,–
"AATTTTGTGACTGTAT (sugars k3 d10 k3, PS)",0%,–
"ACCACTGTGTACCCCA (sugars kkdddddddddkekek, PS)",17%,–
"ACCACTGTGTACCCCA (sugars kkkddddddddkdkdk, PS)",40%,–
"ACCATTCTATGCCTTT (sugars k3 d10 k3, PS)",70% and 74%,"target mRNA inhibition (KARPAS-229, 0.44444 µM): 44%; target mRNA inhibition (KARPAS-229, 1.33333 µM): 60%; target mRNA inhibition (KARPAS-229, 12 µM): 86%"
"ACCATTCTATGCCTTT (sugars kddddddddddkekek, PS)",0%,–
"ACCATTCTATGCCTTT (sugars kdddddddddkekeke, PS)",10%,–
"ACCATTCTATGCCTTT (sugars kkddddddddddkeke, PS)",51%,–
"ACTGACACAGGCGGAT (sugars k2 d8 e4 k2, PS)",0%,–
"AGATGGTGTTATCTCC (sugars k3 d9 k3 e1, PS)",0%,–
"AGATGGTGTTATCTCC (sugars kekdddddddddeekk, PS)",0%,–
"AGCTTGGTCTTGACCT (sugars kdddddddddkekeke, PS)",14%,–
"AGCTTGGTCTTGACCT (sugars kkddddddddddkeke, PS)",0%,–
"AGCTTGGTCTTGACCT (sugars kkdddddddddkekek, PS)",8%,–
"AGCTTGGTCTTGACCT (sugars kkkddddddddkekek, PS)",3%,–
"AGGAAGTGAGTCTCAA (sugars kkddddddddkekekk, PS)",20%,–
"AGGAAGTGAGTCTCAA (sugars kkkdddddddddkeke, PS)",21%,–
"AGGAGTGAGACGAGCA (sugars k3 d9 k3 e1, PS)",37%,–
"AGGAGTGAGACGAGCA (sugars kkkddddddddkekek, PS)",24%,–
"AGGGCACAGCGCAGGT (sugars k3 d10 k3, PS)",2%,–
"AGGGTGAGTAGGACGA (sugars k3 d10 k3, PS)",19%,–
"AGGTTCTTGGACTCTC (sugars k3 d9 k3 e1, PS)",19%,–
"AGGTTCTTGGACTCTC (sugars kkddddddddddkeke, PS)",41%,–

Sequence,"target mRNA inhibition (KARPAS-229, 4 µM)",other results
"AGGTTCTTGGACTCTC (sugars kkddddddddkekekk, PS)",0%,–
"AGTCATGGGCGTGAGGC (sugars kdddddddddkekeked, PS)",17%,–
"AGTGAGTCTCAAACCA (sugars k3 d10 k3, PS)",0%,–
"ATCACCACTGTGTACC (sugars k3 d10 k3, PS)",11%,–
"ATCACCACTGTGTACC (sugars kdddddddddkekeke, PS)",0%,–
"ATCACCACTGTGTACC (sugars kkddddddddddkeke, PS)",0%,–
"ATCACCACTGTGTACC (sugars kkkddddddddkekek, PS)",0%,–
"ATGAGTCATGGGCTGA (sugars k3 d10 k3, PS)",21%,–
"ATGAGTCATGGGCTGA (sugars kekddddddddkeekk, PS)",0%,–
"ATGAGTCATGGGCTGA (sugars kkddddddddkekekk, PS)",0%,–
"ATGAGTCATGGGCTGA (sugars kkkdddddddddkeke, PS)",9%,–
"ATGAGTCATGGGCTGA (sugars kkkddddddddkdkdk, PS)",0%,–
"ATGGTGTTATCTCCGT (sugars kkddddddddkekekk, PS)",0%,–
"CAACATCCATCAATGA (sugars k3 d10 k3, PS)",0%,–
"CAATGCAACATCCATC (sugars k3 d10 k3, PS)",0%,–
"CACATCTCCACATCAG (sugars k3 d10 k3, PS)",45%,–
"CACATCTCCACATCAG (sugars kdddddddddkekeke, PS)",2%,–
"CACATCTCCACATCAG (sugars kekdddddddddeekk, PS)",26%,–
"CACATCTCCACATCAG (sugars kkddddddddddkeke, PS)",23%,–
"CACATCTCCACATCAG (sugars kkkdddddddddkeke, PS)",38%,–
"CACATCTCCACATCAG (sugars kkkddddddddkdkdk, PS)",39%,–
"CACTGACACAGGCGGA (sugars kdddddddddddekek, PS)",0%,–
"CACTGACACAGGCGGA (sugars kkddddddddddkeke, PS)",0%,–
"CACTGACACAGGCGGA (sugars kkdddddddddkekek, PS)",0%,–
"CACTGACACAGGCGGA (sugars kkkddddddddkdkdk, PS)",0%,–
"CAGGTTCTTGGACTCT (sugars k3 d10 k3, PS)",0%,–
"CAGGTTCTTGGACTCT (sugars kddddddddddkekek, PS)",0%,–

# From the OligoGym collection
